Assays:
[1] = tested on: full length SMN2 minigene mRNA (HEK293H cells stably transfected with SMN2-A minigene); experiment: SMN2 minigene mRNA splicing RT-qPCR assay in cultured cells; format: cell-based; conditions: Homo sapiens, HEK293-H, 24 hours, 7-point concentration curve, 1.5-fold increase relative to vehicle, read-out: EC1.5x minigene (EC1.5x concentration for production of full length SMN2 minigene mRNA)
From the text: The term “EC1.5x concentration for production of full length SMN2 minigene mRNA” (or “EC1.5x minigene”) is defined as that concentration of test compound that 1 s effective m increasing the amount of full length SMN2 minigene mRNA to a level 1.5-fold greater relative to that in vehicle-treated cells.
The reverse transcription-quantitative PCR-based (RT-qPCR) assay is used to quantify the level of the full length SMN2 minigene (referred to herein by the term “FL SMN2mini”) mRNA containing SMN2 exon 7 in a HEK293H cell line stably transfected with said minigene and treated with a test compound. Materials used and respective sources are listed below in Table 1.
The SMN2-A minigene construct was prepared as described in International Patent Application WO2009/151546A1 page 145 paragraph [00400] to page 147 paragraph [00412](incl. FIG. 1 and FIG. 3 therein).
HEK293H cells stably transfected with the SMN2-A minigene construct (10,000 cells/well) are seeded in 200 μL of cell culture medium (DMEM plus 10% FBS, with 200 μg/mL hygromycin) in 96-well flat-bottom plates and the plate is immediately swirled to ensure proper dispersal of cells and the formation of an even monolayer of cells. Cells are allowed to attach for 6 hours. Test compounds are serially diluted 3.16-fold in 100% DMSO to generate a 7-point concentration curve. A solution of test compound (1 μL, 200× in DMSO) is added to each cell-containing well and the plate is incubated for 24 hours in a cell culture incubator (37° C., 5% CO2, 100% relative humidity). 2 replicates are prepared for each test compound concentration. The cells are then lysed in the Cells-To-Ct lysis buffer and the lysate is stored at −80° C.
Full length SMN2-A minigene and GAPDH mRNA are quantified using the primers and probes referenced in Table 2. Primer SMN Forward A (SEQ ID NO.1) hybridizes to a nucleotide sequence in exon 7 (nucleotide 22 to nucleotide 40), primer SMN Reverse A (SEQ ID NO.2) hybridizes to a nucleotide sequence in the coding sequence of Firefly luciferase, SMN Probe A (SEQ ID NO.3) hybridizes to a nucleotide sequence in exon 7 (nucleotide 50 to nucleotide 54) and exon 8 (nucleotide 1 to nucleotide 21). The combination of these three oligonucleotides detects only SMN1 or SMN2 minigenes (RT-qPCR) and will not detect endogenous SMN1 or SMN2 genes.
The SMN forward and reverse primers are used at final concentrations of 0.4 μM. The SMN probe is used at a final concentration of 0.15 μM. The GAPDH primers are used at final concentrations of 0.2 μM and the probe at 0.15 μM.
The SMN2-minigene GAPDH mix (15 μL total volume) is prepared by combining 7.5 μL of 2×RT-PCR buffer, 0.4 μL of 25×RT-PCR enzyme mix, 0.75 μL of 20×GAPDH primer-probe mix, 4.0075 μL of water, 2 μL of 10-fold diluted cell lysate, 0.06 μL of 100 µM SMN forward primer, 0.06 μL of 100 μM SMN reverse primer, and 0.225 μL of 100 μM SMN probe.
PCR is carried out at the following temperatures for the indicated time: Step 1: 48° C. (15 min); Step 2: 95° C. (10 min); Step 3: 95° C. (15 sec); Step 4: 60° C. (1 min); then repeat Steps 3 and 4 for a total of 40 cycles.
Each reaction mixture contains both SMN2-A minigene and GAPDH primers/probe sets (multiplex design), allowing simultaneous measurement of the levels of two transcripts.
The increase in the abundance of the FL SMN2mini mRNA relative to that in cells treated with vehicle control is determined from real-time PCR data using a modified ΔΔCt method (as described in Livak and Schmittgen, Methods, 2001, 25:402-8). The amplification efficiency E is calculated from the slope of the amplification curve for FL SMN2mini and GAPDH individually. The abundance of FL SMN2mini and GAPDH mRNA are then calculated as (1+E)^−Ct, where Ct is the threshold value for each amplicon. The abundance of FL SMN2mini mRNA is normalized to GAPDH mRNA abundance. […]

[2] = tested on: SMN protein in SMA patient fibroblast cells (GM03813); experiment: SMN protein assay in cultured cells (SMN HTRF); format: cell-based; conditions: Homo sapiens, SMA Type 1 patient fibroblasts, 48 hours; for EC (1.5-fold): 7-point concentration curve, 1.5 times SMN protein vs vehicle, read-out: EC1.5x SMN protein (EC1.5x concentration for SMN protein expression); for maximal fold induction: fold increase relative to vehicle control, read-out: max. fold increase of SMN protein
From the text: The term “EC1.5x concentration for SMN protein expression” (or “EC1.5x SMN protein”) is defined as that concentration of test compound that is effective in producing 1.5 times the amount of SMN protein in an SMA patient fibroblast cell compared to the amount produced from the vehicle control.
The SMN HTRF (homogeneous time resolved fluorescence) assay is used to quantify the level of SMN protein in SMA patient fibroblast cells treated with test compounds. Materials used and respective sources are listed below in Table 4.
Cells are thawed and cultured in DMEM-10% FBS for 72 hours. Cells are trypsinized, counted and re-suspended to a concentration of 25,000 cells/mL in DMEM-10% FBS. The cell suspensions are plated at 5,000 cells per well in a 96 well microtiter plate and incubated for 3 to […]. Test compounds are serially diluted 3.16-fold in 100% DMSO to generate a 7-point concentration curve. 1 μL of test compound solution is transferred to cell-containing wells and cells are incubated for 48 hours in a cell culture incubator (37° C., 5% CO2, […]). Triplicate samples are set up for each test compound concentration. After 48 hours, the supernatant is removed from the wells and 25 μL of the RIPA lysis buffer, containing protease inhibitors, is added to the wells and incubated with shaking at room temperature for 1 hour. 25 μL of the diluent is added and then 35 μL of the resulting lysate is transferred to a 384-well plate, where each well contains 5 μL of the antibody solution (1:100 dilution of anti-SMN d2 and anti-SMN kryptate in SMN reconstitution buffer). The plate is centrifuged for 1 minute to bring the solution to the bottom of the wells, then incubated overnight at room temperature. Fluorescence for each well of the plate at 665 nm and 620 nm is measured on an EnVision multilabel plate reader (Perkin-Elmer).
The normalized fluorescence signal is calculated for each sample, Blank and vehicle control well by dividing the signal at 665 nm by the signal at 620 nm. Normalizing the signal accounts for possible fluorescence quenching due to the matrix effect of the lysate. The ΔF value (a measurement of SMN protein abundance as a percent value) for each sample well is calculated by subtracting the normalized average fluorescence for the Blank control wells from the normalized fluorescence for each sample well, then dividing this difference by the normalized average fluorescence for the Blank control wells and multiplying the resulting value by 100. The ΔF value for each sample well represents the SMN protein abundance from test compound-treated samples. The ΔF value for each sample well is divided by the ΔF value for the vehicle control wells to calculate the fold increase in SMN protein abundance relative to the vehicle control. Table 5 provides EC1.5x concentrations for SMN protein expression that was obtained from the 7-point concentration data generated according to the above procedure for particular compounds of the present invention.
Table 6 provides the maximum fold increase of SMN protein that was obtained from the 7-point concentration data generated according to the above procedure for particular compounds of the present invention

Structure (SMILES) | EC (1.5-fold) [1] | EC (1.5-fold) [2] | maximal fold induction [2]
Cc1cn2nc(-c3cc(=O)n4cc(N5CCNC6(CC6)C5)cc(C)c4n3)cc(C)c2n1 [Example 28, 7-(4,7-diazaspiro[2.5]octan-7-yl)-2-(2,8-dimethylimidazo[1,2-b]pyridazin-6-yl)-9-methyl-pyrido[1,2-a]pyrimidin-4-one] | 0.005 µM | 0.0497 µM | 1.72
Cc1cn2nc(-c3cc(=O)n4cc(N5C[C@H](C)N[C@@H](C)C5)ccc4n3)cc(C)c2n1 [Example 29, 2-(2,8-dimethylimidazo[1,2-b]pyridazin-6-yl)-7-[(3S,5S)-3,5-dimethylpiperazin-1-yl]pyrido[1,2-a]pyrimidin-4-one] | 0.0003 µM | 0.0021 µM | 1.81
Cc1cn2nc(-c3cc(=O)n4cc(N5CC[C@H](N6CCCC6)C5)ccc4n3)cc(C)c2n1 [Example 30, 2-(2,8-dimethylimidazo[1,2-b]pyridazin-6-yl)-7-[(3S)-3-pyrrolidin-1-ylpyrrolidin-1-yl]pyrido[1,2-a]pyrimidin-4-one] | 0.003 µM | 0.0136 µM | 1.84
Cc1cn2nc(-c3cc(=O)n4cc(N5CC[C@H](N6CCCC6)C5)ccc4n3)ccc2n1 [Example 31, 2-(2-methylimidazo[1,2-b]pyridazin-6-yl)-7-[(3S)-3-pyrrolidin-1-ylpyrrolidin-1-yl]pyrido[1,2-a]pyrimidin-4-one] | 0.0067 µM | 0.0277 µM | 1.65
Cc1cn2nc(-c3cc(=O)n4cc(N5C[C@H](C)N[C@@H](C)C5)ccc4n3)ccc2n1 [Example 32, 7-[(3S,5S)-3,5-dimethylpiperazin-1-yl]-2-(2-methylimidazo[1,2-b]pyridazin-6-yl)pyrido[1,2-a]pyrimidin-4-one] | 0.0016 µM | 0.004 µM | 1.88
Cc1cn2nc(-c3cc(=O)n4cc(N5CCN[C@@H](C)C5)cc(C)c4n3)ccc2n1 [Example 33, 9-methyl-2-(2-methylimidazo[1,2-b]pyridazin-6-yl)-7-[(3S)-3-methylpiperazin-1-yl]pyrido[1,2-a]pyrimidin-4-one] | 0.0005 µM | 0.004 µM | 1.82
Cc1cn2nc(-c3cc(=O)n4cc(N5CCN[C@H](C)C5)cc(C)c4n3)ccc2n1 [Example 34, 9-methyl-2-(2-methylimidazo[1,2-b]pyridazin-6-yl)-7-[(3R)-3-methylpiperazin-1-yl]pyrido[1,2-a]pyrimidin-4-one] | 0.0009 µM | 0.0044 µM | 1.89
Cc1cn2nc(-c3cc(=O)n4cc(N5C[C@@H](C)N[C@@H](C)C5)cc(C)c4n3)ccc2n1 [Example 35, 7-[(3R,5S)-3,5-dimethylpiperazin-1-yl]-9-methyl-2-(2-methylimidazo[1,2-b]pyridazin-6-yl)pyrido[1,2-a]pyrimidin-4-one] | 0.0047 µM | 0.0195 µM | 1.79
Cc1cn2nc(-c3cc(=O)n4cc(N5CCNC(C)(C)C5)cc(C)c4n3)ccc2n1 [Example 36, 7-(3,3-dimethylpiperazin-1-yl)-9-methyl-2-(2-methylimidazo[1,2-b]pyridazin-6-yl)pyrido[1,2-a]pyrimidin-4-one] | 0.005 µM | 0.0344 µM | 1.77
Cc1cn2nc(-c3cc(=O)n4cc(N5CCNC6(CC6)C5)cc(C)c4n3)ccc2n1 [Example 37, 7-(4,7-diazaspiro[2.5]octan-7-yl)-9-methyl-2-(2-methylimidazo[1,2-b]pyridazin-6-yl)pyrido[1,2-a]pyrimidin-4-one] | 0.0044 µM | 0.045 µM | 1.87
Cc1cn2nc(-c3cc(=O)n4cc(N5C[C@H](C)N[C@@H](C)C5)cc(C)c4n3)ccc2n1 [Example 38, 7-[(3S,5S)-3,5-dimethylpiperazin-1-yl]-9-methyl-2-(2-methylimidazo[1,2-b]pyridazin-6-yl)pyrido[1,2-a]pyrimidin-4-one] | 0.0003 µM | 0.0031 µM | 1.85
CC[C@@H]1CN(c2ccc3nc(-c4ccc5nc(C)cn5n4)cc(=O)n3c2)CCN1 [Example 39, 7-[(3R)-3-ethylpiperazin-1-yl]-2-(2-methylimidazo[1,2-b]pyridazin-6-yl)pyrido[1,2-a]pyrimidin-4-one] | 0.0009 µM | 0.0158 µM | 1.81

Reference: patent publication US11827646B2, “Compounds for treating spinal muscular atrophy” (Hoffmann-La Roche Inc., priority 2014, dated 2023)
